The text below walks through data of paper PMC7932521, “2-aminobenzimidazoles for leishmaniasis: From initial hit discovery to in vivo profiling” (PLoS Neglected Tropical Diseases, 2021).

For data set [1], the system named is Leishmania infantum MHOM/MA(BE)/67/ITMAP263 amastigotes. The experiment in a line: L. infantum intracellular amastigote assay in PMM. It is filed as cell-based. The settings on record: for SI: selectivity index (CC50 / IC50): CC50 / L. infantum IC50; for IC50: read-out: L. infantum IC50. Summed up: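 Mouse peritoneal macrophages infected with hamster spleen-derived amastigotes (2 h, 37°C), then exposed to 4-fold dilutions from 64 μM (DMSO <1%) for 5 days at 37°C, 5% CO2. Burden scored microscopically after Giemsa staining as percent reduction vs untreated wells; IC50 as geometric mean of ≥2 experiments.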

Data set [2] can be described thus: HEPG2 cytotoxicity. It is filed as cell-based. The settings on record: human, HepG2 cells; S1 Data. An excerpt:
Supplement pntd.0009196.s001.xlsx, sheet "Complete Dataset" | column: HEPG2 CC50 (uM)

A short description of data set [3]: Parallel artificial membrane permeability assay (PAMPA). It is filed as in vitro ADME. The settings on record: S1 Data; for Papp at 5 h, 10 μM: PAMPA, read-out: PAMPA Pe. In outline: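 Compounds at 10μM final in PBS pH 6.5 (donor) against PBS pH 7.4 (acceptor) across lipid-coated membranes, incubated 5 h at 37°C. Donor, acceptor and T0 levels measured by LC-MS/MS to derive effective permeability (Pe); n = 3.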
(In general: PAMPA measures passive passage across an artificial lipid membrane.)

Data set [4] relates to PMM (Primary Mouse Macrophages). Put plainly: Cytotoxicity on primary peritoneal mouse macrophages. The data set is classed as cell-based. Conditions: read-out: PMM IC50. Summed up:
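Host cells were peritoneal macrophages from Swiss mice, harvested after 2 days of starch stimulation and kept in RPMI-1640 with 5% FCS at 37 °C, 5% CO2. Compounds were tested in 4-fold dilutions from 64 μM, with final DMSO below 1%.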

A short description of data set [5]: MRC-5 cytotoxicity. It is filed as cell-based. Conditions: human, MRC-5 cells; S1 Data.
Data set [6] in a line: Mouse liver microsomal stability. The data set is classed as in vitro ADME. Conditions: for microsomal CLint at 0.5 μM: CD1, mouse, liver microsomes. In outline: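 Test compound at 0.5 μM incubated with 0.25 mg/mL human (200-donor pool) or CD1 mouse liver microsomes, pH 7.4, 37°C, started with […]; sampled 0–30 min. LC-MS/MS quantitation against internal standard; t1/2 and Clint (μL/min/mg) from non-linear regression of % remaining versus time.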
A general note: Microsomes from liver hold many membrane-bound enzymes, among them those of drug oxidation.

Data set [7] is described as follows: Experimental distribution coefficient (eLogD). The settings on record: for chromatographic logD: reverse stationary phase HPLC column (Ascentis RP-Amide). It is filed as physicochemical. Summed up:
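Lipophilicity derived from retention time on an Ascentis RP-Amide reverse-phase column by LC-MS/MS, compounds at 1.0 μg/mL with internal standard; mobile phases 5% methanol in 10mM ammonium acetate pH 7.4 and 100% methanol. LogD calculated from a linear calibration of eight standards' retention times against known LogD.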

Data set [8] has as its system MRC-5 cells. Put plainly: MRC-5 cytotoxicity. Conditions: S1 Data. It is filed as cell-based.
Setting [9] is: Leishmania infantum, 120 h, intracellular amastigotes in PMM, 5 days.
Where [10] appears, read: pH 7.4, S1 Data, read-out: MLM CLint.
Where [11] appears, read: intracellular amastigotes in PMM, 5 days.

Where two headings read alike, the source gives them in different places. A value given as a limit tells only on which side of the number the result lay.

The IC50 is the concentration that inhibits the measured activity by half. By CC50 is commonly meant the concentration giving 50% cytotoxicity. Read a high CC50 as better tolerance by the cells. In general, chromatographic logD refers to a lipophilicity value derived from retention on a column. Low values mean a more hydrophilic compound, high ones a more lipophilic compound. For the compound `CC(C)(C)Cn1c(NC(=O)c2ccn[nH]2)nc2ccc(C#N)cc21` [Compound 34, O=C(Nc1nc(ccc(C#N)c2)c2n1CC(C)(C)C)c3ccn[nH]3], the “SI: selectivity index (CC50 / IC50)” value in data set [1] was found to be 1. For the same compound, the IC50 in data set [1] (setting [9]) was determined as 38 µM; in data set [1] (Leishmania infantum, S1 Data), 38.3 µM; in data set [4] (Mus musculus, Macrophage), 50.8 µM. For the same compound, the CC50 in data set [2] is 16 µM; in data set [5], greater than 64 µM. The Papp at 5 h, 10 μM in data set [3] was found to be 11.1 ×10⁻⁶ cm/s. In data set [6] (setting [10]), the microsomal CLint at 0.5 μM turned out to be 47 µL/min/mg. Also, in data set [7] (experimental, pH 7.4), the eLogD stood at 3.6. In data set [7] (pH 7.4, S1 Data), the chromatographic logD amounted to 3.67.
Regarding `N#Cc1ccc2nc(NC(=O)Cc3ccc(F)cc3F)n(CC(F)(F)F)c2c1` [Compound 24, Fc1cc(F)ccc1CC(Nc2nc(ccc(C#N)c3)c3n2CC(F)(F)F)=O], the concentration for half-maximal inhibition (IC50) stood at 10 µM in data set [1] (setting [9]); 10.2 µM in data set [1] (Leishmania infantum, S1 Data); 16 µM in data set [4] (Mus musculus, Macrophage). For the same compound, the cytotoxic concentration (CC50) in data set [2] and in data set [5] was greater than 64 µM throughout. Besides, the Papp at 5 h, 10 μM in data set [3] worked out at 0.76 ×10⁻⁶ cm/s. For the same compound, the microsomal CLint at 0.5 μM in data set [6] (setting [10]) came out at 20 µL/min/mg; in data set [6] (pH 7.4, mouse liver microsome intrinsic clearance, read-out: MLM Clint), 19.6 µL/min/mg. The compound further gave a chromatographic logD in data set [7] (pH 7.4, S1 Data) of 3.85.
Consider “CCCn1c(NC(=O)Cc2ccc(F)cc2)nc(c13)cc(C(=O)OC)cc3 [Compound 9]”, for which the “SI: selectivity index (CC50 / IC50)” value in data set [1] came out at 3. In addition, the IC50 was found to be 6.49 µM in data set [1] (S1 Data), 6.5 µM in data set [1] (setting [11]) and 16 µM in data set [4] (S1 Data). In data set [3], the “PAMPA Pe” value is listed as 8.66 10-6 cm/s. This compound came in with a cytotoxic concentration (CC50) in data set [8] of 18.7 µM. The “MLM CLint” value in data set [6] (S1 Data) was determined as 1253 µL/min/mg. The compound also showed an eLogD in data set [7] (S1 Data) of 4.04.
For “O=C(c1cc(nc(NC(=O)Cc2ccc(F)cc2)n3CCC)c3cc1)N4CCCC4 [Compound 13]”, the “SI: selectivity index (CC50 / IC50)” value in data set [1] came to 6. Also, the results for the IC50 in data set [1] (S1 Data), in data set [1] (setting [11]) and in data set [4] (S1 Data) were 9.79 µM, 9.8 µM and greater than 64 µM, respectively. Further, in data set [3], the “PAMPA Pe” value is 7.92 10-6 cm/s. This compound also yielded a CC50 in data set [8] greater than 64 µM. Further, the “MLM CLint” value in data set [6] (S1 Data) is 138 µL/min/mg. In addition, the eLogD in data set [7] (S1 Data) amounted to 3.99; in data set [7] (experimental, pH 7.4) it was 4.0.
For the compound “CCCn1c(NC(=O)Cc2ccc(F)cc2)nc(c13)cc(C(=O)N4CCOCC4)cc3 [Compound 14]”, in data set [1], the “SI: selectivity index (CC50 / IC50)” value is given as 1. The IC50 was 57 µM in data set [1] (S1 Data), 57 µM in data set [1] (setting [11]) and greater than 64 µM in data set [4] (S1 Data). The “PAMPA Pe” value in data set [3] was 7.26 10-6 cm/s. In data set [8], the CC50 was greater than 64 µM. Besides, the “MLM CLint” value in data set [6] (S1 Data) was less than 23 µL/min/mg; in data set [6] (mouse liver microsome intrinsic clearance), 23 µL/min/mg. The eLogD in data set [7] (S1 Data) turned out to be 3.05.
As to “O=C(Nc1n(C2CC2)c(c3n1)ccc(F)c3)Cc4ccc(Cl)cc4 [Compound 22]”, the IC50 in data set [1] (S1 Data) worked out at 2.54 µM; in data set [4] (S1 Data), 25.4 µM. For the same compound, the “PAMPA Pe” value in data set [3] was 17.70 10-6 cm/s. This compound also had a CC50 in data set [8] of 21.9 µM. Further, the “MLM CLint” value in data set [6] (S1 Data) is 380 µL/min/mg. This compound gave an eLogD in data set [7] (S1 Data) of 3.98.
Consider “CCCn1c(NC(=O)Cc2ccc(F)cc2)nc(c13)cc(C(=O)N(C)OC)cc3 [Compound 15]”, for which, in data set [1], the “SI: selectivity index (CC50 / IC50)” value came out at 5. Also, the IC50 in data set [1] (S1 Data) was 12.7 µM; in data set [1] (setting [11]), 13 µM; in data set [4] (S1 Data) it was greater than 64 µM. For the same compound, in data set [3], the “PAMPA Pe” value was 9.07 10-6 cm/s. The compound further registered a 50% cytotoxic concentration (CC50) in data set [8] of 55.5 µM. Moreover, in data set [6] (S1 Data), the “MLM CLint” value is 128 µL/min/mg. The eLogD in data set [7] (S1 Data) is 3.31; in data set [7] (experimental, pH 7.4) it was 3.3.
“CCCn1c(NC(=O)Cc2ccc(F)cc2)nc(c13)cc(C(=O)NC4CC4)cc3 [Compound 12]”: the “SI: selectivity index (CC50 / IC50)” value in data set [1] turned out to be 1. Further, the IC50 in data set [1] (S1 Data) was 45.2 µM; in data set [1] (setting [11]), 45 µM; in data set [4] (S1 Data), greater than 64 µM. For the same compound, in data set [3], the “PAMPA Pe” value is given as 13.10 10-6 cm/s. In data set [8], this compound registered a CC50 greater than 64 µM. Also, in data set [6] (S1 Data), the “MLM CLint” value stood at 52 µL/min/mg. Also, the eLogD stood at 3.50 in data set [7] (S1 Data) and 3.5 in data set [7] (experimental, pH 7.4).
